Key:
Test in all cases: normalised viability (% of control), CellTiter-Blue; higher = more viable cells (100 = DMSO, 0 = benzethonium chloride kill control)
Settings in all cases: incubation time: 72 h
CAL-85-1 = test system: CAL-85-1
Experimental: (§1)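 DSRT, CellTiter-Blue viability, 72 h incubation. Signal is normalised to DMSO and benzethonium chloride controls. Value is the normalised response at dose 1.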

BT-474 = test system: BT-474
Experimental: as §1

Hs578T = test system: Hs578T
Experimental: as §1

MFM-223 = test system: MFM-223
Experimental: as §1

MDA-MB-231 = test system: MDA-MB-231
Experimental: as §1

HCC1143 = test system: HCC1143
Experimental: as §1

DU-4475 = test system: DU-4475
Experimental: as §1

SK-BR-3 = test system: SK-BR-3
Experimental: as §1

MDA-MB-468 = test system: MDA-MB-468
Experimental: as §1

HCC1599 = test system: HCC1599
Experimental: as §1

HDQ-P1 = test system: HDQ-P1
Experimental: as §1

MDA-MB-436 = test system: MDA-MB-436
Experimental: as §1

BT-549 = test system: BT-549
Experimental: as §1

CAL-120 = test system: CAL-120
Experimental: as §1

MDA-MB-453 = test system: MDA-MB-453
Experimental: as §1

HCC1937 = test system: HCC1937
Experimental: as §1

CAL-148 = test system: CAL-148
Experimental: as §1

CAL-51 = test system: CAL-51
Experimental: as §1

`COc1cc(Nc2ncc(F)c(Nc3ccc4c(n3)NC(=O)C(C)(C)O4)n2)cc(OC)c1OC` [R406] (1 nM) gave a normalised viability (CAL-85-1) of 84.8%, a normalised viability (BT-474) of 117% and a normalised viability (Hs578T) of 116%. It also gave a normalised viability (MFM-223) of 93.3%, a normalised viability (MDA-MB-231) of 95.7% and a normalised viability (HCC1143) of 91.6%. It also gave a normalised viability (DU-4475) of 112%, a normalised viability (SK-BR-3) of 102% and a normalised viability (MDA-MB-468) of 94.1%. For the same molecule, the normalised viability (HCC1599) was 101%, the normalised viability (HDQ-P1) was 116% and the normalised viability (MDA-MB-436) was 92.1%. It also gave a normalised viability (BT-549) of 97%, a normalised viability (CAL-120) of 83.5% and a normalised viability (MDA-MB-453) of 106%. For the same molecule, the normalised viability (HCC1937) was 91.6%, the normalised viability (CAL-148) was 110% and the normalised viability (CAL-51) was 106%.

`O=P(O)(NCCCl)NCCCl` [Ifosfamide mustard] (1 nM) gave a normalised viability (CAL-85-1) of 85.5%, a normalised viability (BT-474) of 113% and a normalised viability (Hs578T) of 116%. The normalised viability (MFM-223) was 94.9%, the normalised viability (MDA-MB-231) was 101% and the normalised viability (HCC1143) was 97.4%. The normalised viability (DU-4475) was 106%, the normalised viability (SK-BR-3) was 91.8% and the normalised viability (MDA-MB-468) was 101%. It also gave a normalised viability (HCC1599) of 109%, a normalised viability (HDQ-P1) of 88.6% and a normalised viability (MDA-MB-436) of 110%. The normalised viability (BT-549) was 102%, the normalised viability (CAL-120) was 82.2% and the normalised viability (MDA-MB-453) was 109%. It also gave a normalised viability (HCC1937) of 92.3%, a normalised viability (CAL-148) of 111% and a normalised viability (CAL-51) of 108%.

`c1ccc(C2CN3CCSC3=N2)cc1` (centres undefined) [Tetramisole] (1 nM) gave a normalised viability (CAL-85-1) of 96.5%, a normalised viability (BT-474) of 80.2% and a normalised viability (Hs578T) of 110%. It also gave a normalised viability (MFM-223) of 98.5%, a normalised viability (MDA-MB-231) of 99.2% and a normalised viability (HCC1143) of 107%. It also gave a normalised viability (DU-4475) of 83%, a normalised viability (SK-BR-3) of 116% and a normalised viability (MDA-MB-468) of 112%. For the same molecule, the normalised viability (HCC1599) was 95.3%, the normalised viability (HDQ-P1) was 126% and the normalised viability (MDA-MB-436) was 102%. The normalised viability (BT-549) was 97.8%, the normalised viability (CAL-120) was 118% and the normalised viability (MDA-MB-453) was 106%. It also gave a normalised viability (HCC1937) of 94.3%, a normalised viability (CAL-148) of 117% and a normalised viability (CAL-51) of 91.6%.
